# Measurements taken from patent US20080194482A1, “Selective Apac2 Receptor Peptide Agonists” (priority 2005, published 2008).
# Square brackets hold non-standard residues; d marks the D form. Peptide text beside a SMILES is read from it. * marks the point of attachment. Orn = NCCC[C@H](N)C(=O)O; Hexanoyl = CCCCCC(=O)*; Aib = CC(C)(N)C(=O)O
# T1: human VPAC2 (Homo sapiens, UniProt P41587)
# T1 construct: expressed in transfected cells
# T1 sequence (P41587 24-438): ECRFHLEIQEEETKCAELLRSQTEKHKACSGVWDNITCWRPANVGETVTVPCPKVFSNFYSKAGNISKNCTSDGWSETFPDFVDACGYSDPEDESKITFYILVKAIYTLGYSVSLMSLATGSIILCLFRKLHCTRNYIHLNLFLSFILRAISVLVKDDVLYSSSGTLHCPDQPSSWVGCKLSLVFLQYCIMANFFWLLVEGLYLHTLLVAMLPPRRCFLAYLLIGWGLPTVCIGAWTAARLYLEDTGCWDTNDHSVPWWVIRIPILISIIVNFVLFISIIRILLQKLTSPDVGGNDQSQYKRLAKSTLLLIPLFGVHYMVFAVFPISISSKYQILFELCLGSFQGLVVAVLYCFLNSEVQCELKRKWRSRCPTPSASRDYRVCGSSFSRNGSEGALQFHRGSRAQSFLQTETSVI
# T2: human VPAC1 (Homo sapiens, UniProt P32241)
# T2 construct: expressed in transfected cells
# T2 sequence (P32241 31-457): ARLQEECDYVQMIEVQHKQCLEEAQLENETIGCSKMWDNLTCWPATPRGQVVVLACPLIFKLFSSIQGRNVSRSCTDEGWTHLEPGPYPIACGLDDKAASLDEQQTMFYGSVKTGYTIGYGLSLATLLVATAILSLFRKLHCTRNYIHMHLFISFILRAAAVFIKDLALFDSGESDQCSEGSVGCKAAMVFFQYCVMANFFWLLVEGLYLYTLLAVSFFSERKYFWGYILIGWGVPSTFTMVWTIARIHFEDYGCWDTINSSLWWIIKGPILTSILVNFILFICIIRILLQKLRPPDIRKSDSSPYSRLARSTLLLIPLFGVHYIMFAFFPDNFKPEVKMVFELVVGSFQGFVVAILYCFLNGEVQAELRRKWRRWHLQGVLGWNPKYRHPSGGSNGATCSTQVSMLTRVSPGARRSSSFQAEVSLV
# T3: human PAC1 (Homo sapiens, UniProt P41586)
# T3 construct: expressed in transfected cells
# T3 sequence (P41586 21-468): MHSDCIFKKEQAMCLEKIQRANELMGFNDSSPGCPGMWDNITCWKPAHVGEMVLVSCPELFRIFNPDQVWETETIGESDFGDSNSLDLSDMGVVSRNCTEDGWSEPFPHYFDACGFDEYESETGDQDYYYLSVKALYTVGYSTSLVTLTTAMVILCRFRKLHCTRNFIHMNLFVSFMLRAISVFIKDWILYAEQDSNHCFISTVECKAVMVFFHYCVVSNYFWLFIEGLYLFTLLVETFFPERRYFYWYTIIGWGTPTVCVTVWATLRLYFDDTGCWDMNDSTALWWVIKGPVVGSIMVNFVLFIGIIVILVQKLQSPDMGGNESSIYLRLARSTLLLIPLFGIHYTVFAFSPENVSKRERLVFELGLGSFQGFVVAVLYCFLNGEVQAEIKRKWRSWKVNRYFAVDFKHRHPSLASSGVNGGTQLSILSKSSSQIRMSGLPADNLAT
# T4: rat VPAC2 receptor (Rattus norvegicus, UniProt P35000)
# T4 construct: expressed in transfected cells; host or cells: CHO-PO (transient, Lipofectamine)
# T4 sequence (P35000 23-437): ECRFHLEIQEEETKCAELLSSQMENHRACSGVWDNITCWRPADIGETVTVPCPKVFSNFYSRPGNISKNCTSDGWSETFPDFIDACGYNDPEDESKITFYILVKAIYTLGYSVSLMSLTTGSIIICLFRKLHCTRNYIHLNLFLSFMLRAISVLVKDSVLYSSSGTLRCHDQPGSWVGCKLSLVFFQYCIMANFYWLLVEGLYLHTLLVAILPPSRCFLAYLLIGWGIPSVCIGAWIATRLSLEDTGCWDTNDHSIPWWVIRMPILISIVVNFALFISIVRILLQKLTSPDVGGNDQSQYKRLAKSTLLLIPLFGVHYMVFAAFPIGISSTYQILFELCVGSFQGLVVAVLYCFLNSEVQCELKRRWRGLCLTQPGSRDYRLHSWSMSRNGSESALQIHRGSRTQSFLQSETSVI
# T5: rat VPAC1 receptor (Rattus norvegicus, UniProt P30083)
# T5 construct: expressed in transfected cells; host or cells: CHO-PO (transient, Lipofectamine)
# T5 sequence (P30083 31-459): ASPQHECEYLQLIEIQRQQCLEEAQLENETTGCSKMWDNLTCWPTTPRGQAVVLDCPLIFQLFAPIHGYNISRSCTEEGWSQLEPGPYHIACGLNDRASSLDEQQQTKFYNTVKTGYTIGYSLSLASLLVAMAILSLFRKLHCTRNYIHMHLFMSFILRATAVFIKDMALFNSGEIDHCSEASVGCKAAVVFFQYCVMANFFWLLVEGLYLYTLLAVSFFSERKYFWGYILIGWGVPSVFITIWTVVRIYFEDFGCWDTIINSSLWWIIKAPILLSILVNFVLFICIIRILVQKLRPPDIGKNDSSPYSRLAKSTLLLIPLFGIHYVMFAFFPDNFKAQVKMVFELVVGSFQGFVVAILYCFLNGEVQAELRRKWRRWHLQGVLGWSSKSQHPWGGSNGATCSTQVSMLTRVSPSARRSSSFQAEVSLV
# T6: human VPAC2 receptor (human, UniProt P41587 24-438)
# T6 sequence (looked up): T1 sequence (P41587 24-438)
# T7: human VPAC1 receptor (human, UniProt P32241 31-457)
# T7 sequence (looked up): T2 sequence (P32241 31-457)
# Assays:
# human VPAC2 [1] = target: T1, human VPAC2; experiment: Alpha screen cAMP assay, in vitro potency at human VPAC2 receptor; type: cell-based; settings: cAMP generation; single result from two analyses in a single run, some values average of more than one experiment
# human VPAC2 [2] = target: T1, human VPAC2; experiment: Filter binding assay, 125I-labeled VIP tracer, VPAC2 membranes; settings: read-out: Human VPAC2 Receptor Binding (IC50; nM)
# human VPAC1 = target: T2, human VPAC1; experiment: Filter binding assay, 125I-labeled VIP tracer, VPAC1 membranes; settings: read-out: Human VPAC1 Receptor Binding (IC50; nM)
# human PAC1 = target: T3, human PAC1; experiment: Filter binding assay, 125I-labeled PACAP-27 tracer, PAC1 membranes; settings: read-out: Human PAC1 Receptor Binding (IC50; nM)
# rat VPAC2 receptor = target: T4, rat VPAC2 receptor; experiment: DiscoveRx cAMP assay, in vitro potency at rat VPAC2 receptor; type: cell-based; settings: CHO-PO cells transiently transfected with rat VPAC2; cAMP generation; mean of two independent runs
# rat VPAC1 receptor = target: T5, rat VPAC1 receptor; experiment: DiscoveRx cAMP assay, in vitro potency at rat VPAC1 receptor; type: cell-based; settings: CHO-PO cells transiently transfected with rat VPAC1; cAMP generation; mean of two independent runs
# Method: DiscoveRx: CHO-PO cells are transiently transfected with rat VPAC1 or VPAC2 receptor DNA using commercially available transfection reagents (Lipofectamine from Invitrogen). The cells are seeded at a density of 10,000/well in a 96-well plate and are allowed to grow for 3 days in […] culture medium. At day 3, the assay is performed.
# On the day of the experiment, the medium is removed. Also, the cells are washed twice. The cells are incubated in assay buffer plus IBMX for 15 minutes at room temperature. Afterwards, the stimuli are added and are dissolved in assay buffer. The stimuli are present for 30 minutes. Then, the assay buffer is gently removed. The cell lysis reagent of the DiscoveRx cAMP kit is added. Thereafter, the standard protocol for developing the cAMP signal as described by the manufacturer is used (DiscoveRx Inc., USA). EC50 values for cAMP generation are calculated from the raw signal or are based on absolute cAMP levels as determined by a standard curve performed on each plate.
# Results for each agonist are the mean of two independent runs. Rat VPAC1 and VPAC2 results are only generated using the DiscoveRx assay.
# [3] = Rat serum stability (activity remaining, CHO-VPAC2 DiscoveRx read-out); type: in vitro ADME
# Procedure, shortened: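 Peptides preincubated overnight in rat serum at 37 °C without aprotinin versus 4 °C with aprotinin, then tested as 11-point 5× dilutions in duplicate on CHO-VPAC2 cells, 30 min at RT. cAMP measured by DiscoveRx kit against standards; EC50 derived for each aliquot.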
# human VPAC2 receptor = target: T6, human VPAC2 receptor; experiment: cell-based or functional assay
# human VPAC1 receptor = target: T7, human VPAC1 receptor; experiment: cell-based or functional assay
"Human VPAC2 Receptor: DiscoveRx (EC50; nM), cAMP generation (human VPAC2 receptor) [nM]","Human VPAC1 Receptor: DiscoveRx (EC50; nM), cAMP generation (human VPAC1 receptor) [nM]",Molecule,EC50 (human VPAC2 [1]) [nM],IC50 (human VPAC2 [2]) [nM],IC50 (human VPAC1) [nM],IC50 (human PAC1) [nM],EC50 (rat VPAC2 receptor) [nM],EC50 (rat VPAC1 receptor) [nM],Rat Serum Stability (estimated purity in % after overnight incub.) [3] [%]
–,–,CCCCCC(=O)N[C@@H](Cc1c[nH]cn1)C(=O)N[C@@H](CO)C(=O)N[C@@H](CC(=O)O)C(=O)N[C@@H](C)C(=O)N[C@H](C(=O)N[C@@H](Cc1ccccc1)C(=O)N[C@H](C(=O)N[C@@H](CC(=O)O)C(=O)N[C@@H](CC(N)=O)C(=O)N[C@@H](Cc1ccc(O)cc1)C(=O)N[C@H](C(=O)N[C@@H](CCCN)C(=O)N[C@@H](CC(C)C)C(=O)N[C@@H](CCCNC(=N)N)C(=O)NC(C)(C)C(=O)N[C@@H](CCC(N)=O)C(=O)N[C@H](C(=O)N[C@@H](C)C(=O)N[C@@H](C)C(=O)NC(C)(C)C(=O)N[C@@H](CCCCN)C(=O)N[C@@H](Cc1ccc(O)cc1)C(=O)N[C@@H](CC(C)C)C(=O)N[C@@H](CCC(N)=O)C(=O)N[C@@H](CS)C(=O)N[C@H](C(=O)N[C@@H](CCCN)C(=O)N[C@@H](CC(N)=O)C(=O)N[C@@H](CCCN)C(=O)NCC(=O)NCC(=O)N1CCC[C@H]1C(=O)N[C@@H](CO)C(=O)N[C@@H](CO)C(=O)NCC(=O)N[C@@H](C)C(=O)N1CCC[C@H]1C(=O)N1CCC[C@H]1C(=O)N1CCC[C@H]1C(=O)N[C@@H](CO)C(=O)O)[C@@H](C)CC)C(C)C)[C@@H](C)O)[C@@H](C)O)C(C)C [Agonist P372] (Hexanoyl-HSDAVFTDNYT[Orn]LR[Aib]QVAA[Aib]KYLQCI[Orn]N[Orn]GGPSSGAPPPS-OH; C-terminus assumed),0.65,4.82,> 3000,> 25000,0.18,1.67,13.93
–,–,CCCCCC(=O)N[C@@H](Cc1c[nH]cn1)C(=O)N[C@@H](CO)C(=O)N[C@@H](CC(=O)O)C(=O)N[C@@H](C)C(=O)N[C@H](C(=O)N[C@@H](Cc1ccccc1)C(=O)N[C@H](C(=O)N[C@@H](CC(=O)O)C(=O)N[C@@H](CCC(N)=O)C(=O)N[C@@H](Cc1ccc(O)cc1)C(=O)N[C@H](C(=O)N[C@@H](CCCN)C(=O)N[C@@H](CC(C)C)C(=O)N[C@@H](CCCNC(=N)N)C(=O)NC(C)(C)C(=O)N[C@@H](CCC(N)=O)C(=O)N[C@@H](CC(C)C)C(=O)N[C@@H](C)C(=O)N[C@@H](C)C(=O)NC(C)(C)C(=O)N[C@@H](CCCN)C(=O)N[C@@H](Cc1ccc(O)cc1)C(=O)N[C@@H](CC(C)C)C(=O)N[C@@H](CCC(N)=O)C(=O)N[C@@H](CO)C(=O)N[C@H](C(=O)N[C@@H](CCCN)C(=O)N[C@@H](CCCN)C(=O)NCC(=O)NCC(=O)N1CCC[C@H]1C(=O)N[C@@H](CO)C(=O)N[C@@H](CO)C(=O)NCC(=O)N[C@@H](C)C(=O)N1CCC[C@H]1C(=O)N1CCC[C@H]1C(=O)N1CCC[C@H]1C(=O)N[C@@H](CO)C(=O)O)[C@@H](C)CC)[C@@H](C)O)[C@@H](C)O)C(C)C [Agonist P395] (Hexanoyl-HSDAVFTDQYT[Orn]LR[Aib]QLAA[Aib][Orn]YLQSI[Orn][Orn]GGPSSGAPPPS-OH; C-terminus assumed),0.15,0.24,–,> 25000,0.03,0.35,–
–,–,CCCCCC(=O)N[C@@H](Cc1c[nH]cn1)C(=O)N[C@@H](CO)C(=O)N[C@@H](CC(=O)O)C(=O)N[C@@H](C)C(=O)N[C@H](C(=O)N[C@@H](Cc1ccccc1)C(=O)N[C@H](C(=O)N[C@@H](CCC(=O)O)C(=O)N[C@@H](CCC(N)=O)C(=O)N[C@@H](Cc1ccc(OC)cc1)C(=O)N[C@H](C(=O)N[C@@H](CCCN)C(=O)N[C@@H](CC(C)C)C(=O)N[C@@H](CCCNC(=N)N)C(=O)NC(C)(C)C(=O)N[C@@H](CCC(N)=O)C(=O)N[C@H](C(=O)N[C@@H](C)C(=O)N[C@@H](C)C(=O)NC(C)(C)C(=O)N[C@@H](CCCN)C(=O)N[C@@H](Cc1ccc(O)cc1)C(=O)N[C@@H](CC(C)C)C(=O)N[C@@H](CCC(N)=O)C(=O)N[C@@H](CO)C(=O)N[C@H](C(=O)N[C@@H](CCCN)C(=O)N[C@@H](CCCN)C(=O)NCC(=O)NCC(=O)N1CCC[C@H]1C(=O)N[C@@H](CO)C(=O)N[C@@H](CO)C(=O)NCC(=O)N[C@@H](C)C(=O)N1CCC[C@H]1C(=O)N1CCC[C@H]1C(=O)N1CCC[C@H]1C(=O)N[C@@H](CO)C(N)=O)[C@@H](C)CC)C(C)C)[C@@H](C)O)[C@@H](C)O)C(C)C [Agonist P488] (Hexanoyl-HSDAVFTEQY(Me)T[Orn]LR[Aib]QVAA[Aib][Orn]YLQSI[Orn][Orn]GGPSSGAPPPS-NH2),0.19,0.64,> 1000,–,0.09,1.66,193.17
3.02,18.3,HSDAVFTDNYTRLRKQVAAKKYLQSIKNKRQGGPSSGAPPPS [VPAC2 receptor peptide agonist P29],–,–,–,–,–,–,–
